Measurements: US20110245223A1, “HETEROCYCLIC COMPOUNDS” (Japan Tobacco Inc., priority 2005, published 2011)

Target: T1, human HSD-1 (recombinant HSD-1) (Homo sapiens, UniProt P28845)
T1 construct: made in house
Assay: HSD-1 (hydroxysteroid dehydrogenase 1) activity inhibitory action in vitro, SPA, conversion of cortisone to cortisol
Assay type: biochemical
Details: recombinant human HSD-1 expressed using baculovirus system, 10 nM 3H cortisone, 500 μM NADPH, room temperature 90 to 120 min, read-out: hHSD1 (IC50 (nM))

T1 sequence (P28845 whole entry): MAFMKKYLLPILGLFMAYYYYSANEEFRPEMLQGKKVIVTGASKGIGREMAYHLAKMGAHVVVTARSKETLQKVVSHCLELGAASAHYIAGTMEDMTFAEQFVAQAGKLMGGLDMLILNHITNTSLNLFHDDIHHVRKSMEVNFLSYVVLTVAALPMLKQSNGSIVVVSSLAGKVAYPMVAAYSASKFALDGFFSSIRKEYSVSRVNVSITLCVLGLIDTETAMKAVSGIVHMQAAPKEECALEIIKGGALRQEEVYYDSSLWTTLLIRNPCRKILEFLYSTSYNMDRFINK

Compound: O=C(OCCO)N1CCC(n2ncc(C(=O)N3CC[C@@H](c4ccccc4C(F)(F)F)C3)c2C2CC2)CC1 [Example 58, 1-{5-cyclopropyl-1-[1-(2-hydroxyethoxycarbonyl)piperidin-4-yl]-1H-pyrazole-4-carbonyl}-[(S)-3-(2-trifluoromethylphenyl)]pyrrolidine]
- IC50: < 30 nM
